From EP2608770B1, “INHALABLE GASEOUS DRUG CONTAINING KRYPTON FOR TREATING NEURO-INTOXICATION” (L'Air Liquide Société Anonyme pour l'Etude et …, priority 2010, dated 2012)

Test system: U2OS
Assay: Cell death and apoptosis in U2OS cells exposed to cytotoxic agents (staurosporine, rotenone, antimycin A, menadione, mitoxantrone) under a krypton atmosphere, read by automated fluorescence microscopy
Assay type: cell-based
Settings: cells kept in an atmosphere formed of krypton, measured after 6 and 16 hours of incubation
Description: Des essais ont été réalisés pour démontrer que le krypton présente un effet protecteur cérébral de par sa capacité à protéger la cellule du phénomène de la mort cellulaire programmée ou apoptose, qui est la conséquence ultime des neuro-intoxications telles que décrites dans le syndrome d'ischémie-reperfusion, d'addictions... […]
Les cellules ont été ensuite analysées dans un automate BD Pathway Fluorescence Microscope afin de déterminer les paramètres suivants : • apoptose cellulaire définit par GFP-H2B ou DAPI-condensation chromatine mesurable), • autophagie définit par GFP-LC3 puncta, • nécrose définit par l'exsudation de HMGB1 du noyau, • aberrations mitotiques définit par GFP-H2B et Red-Centrin, • niveau de stress ER définit par GFP-G3B puncta, • cycle cellulaire définit par l'incorporation de […] dans les cellules en phase S, ainsi que l'analyse du DNA. […]

[Kr] [krypton]
capacités fonctionnelles et intégrité physiques des cellules: conservent leurs capacités fonctionnelles ainsi que leur intégrité physiques | signes d'apoptose cellulaire (apoptosis defined by GFP-H2B or DAPI chromatin condensation): diminue les signes d'apoptose cellulaire
